“Also recorded” adds a separate entry of the source.
Assays:
[1] = system: MMP-13; experiment: Western blot of MMP-13 protein expression in LPS-induced HGF-1 cells; assay type: cell-based, human
Procedure: (§1) Human Gingival Fibroblasts (HGF-1) were purchased from ATCC (Manassas, VA) and were grown in DMEM with Glutamax, 10% FBS and Penicillin/Streptomycin (All from Gibco) and kept at 37° C. in a humidified air chamber with 5% CO2. Cells were seeded at 3×10^5 cells/flask for the experiments and then grown to confluency. Cells between 3 and 10 passages were used for all experiments.
(§2) 1,2,3,4,6-Penta-O-galloyl-β-D-glucose (purchased from Sigma-Aldrich) was dissolved in dimethylsulfoxide (DMSO) to obtain a 100 mM stock solution.
(§3) The supernatant was collected and assayed for protein concentration.
(§4) The gels were prepared by standard methods and electrophoresed for 1 hour at 150 V.
(§5) Incubation was done according to specific instructions from the manufacturer for each antibody. […] After incubation and washing with PBS-T, the membranes were incubated in the dark in blocking solution with 0.2% Tween, IRDye 800CW Goat anti-Rabbit IgG, and IRDye® 680RD Donkey anti-Mouse IgG (1:10000, LI-COR Biosciences, Lincoln, NE) for 1 hour at room temperature. The proteins were detected and visualized by fluorescence using the Licor Odyssey Classic Infrared Imaging system (LI-COR Biosciences, Lincoln, NE). Densitometry analysis of specific bands was performed with the Image Studio software provided by LI-COR Biosciences. […]

[2] = target: T1, MyD88 adaptor protein (Mus musculus, UniProt P22366); conditions: peritoneal and colonic macrophages; cited from earlier work
T1 construct: host or cells: peritoneal and colonic macrophages
T1 sequence (P22366 whole entry): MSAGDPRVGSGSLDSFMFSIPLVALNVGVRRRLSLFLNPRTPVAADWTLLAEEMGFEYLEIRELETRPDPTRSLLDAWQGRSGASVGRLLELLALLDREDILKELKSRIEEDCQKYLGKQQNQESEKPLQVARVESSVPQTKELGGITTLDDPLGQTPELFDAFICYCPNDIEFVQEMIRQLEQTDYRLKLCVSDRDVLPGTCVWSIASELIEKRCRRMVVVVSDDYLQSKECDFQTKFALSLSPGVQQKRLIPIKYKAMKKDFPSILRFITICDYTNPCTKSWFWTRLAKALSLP

[3] = system: MMP-14; experiment: Western blot of MMP-14 protein expression in LPS-induced HGF-1 cells; assay type: cell-based, human
Procedure: as §1, §2, §3, §4, §5

[4] = system: MMPs; experiment: Real time quantitative PCR of MMP gene expression (all MMPs tested) in HGF-1 cells; assay type: cell-based, human
Procedure: (§6) Gene expression of MMPs was evaluated after treatment under different conditions. The tissue culture was washed with PBS. […] All samples were treated with Qiagen DNase (Cat #79254).
(§7) Real time quantitative PCR was performed on an Applied Biosciences StepOne plus instrument and analyzed with StepOne software v2.3. The relative amounts of transcripts from each gene were normalized to reference gene GAPDH and calculated as follows: ΔΔCT=the average ΔCT of […]−the average ΔCT of […], and their fold difference=2^−ΔΔCT as previously described.

[5] = system: MMP-9; experiment: Real time quantitative PCR of MMP-9 gene expression in HGF-1 cells; assay type: cell-based, human
Procedure: as §6, §7

[6] = system: Human MMP-2; MMP2; experiment: Real time quantitative PCR of MMP-2 gene expression in HGF-1 cells; assay type: cell-based
Procedure: as §6, §7

[7] = system: MMP-2; experiment: Western blot of MMP-2 protein expression in LPS-induced HGF-1 cells; assay type: cell-based, human; conditions: for MMP-2 production: HGF-1, LPS 5 μg/mL + curcumin 2.5, 5 or 10 μM, n=3, FIG. 15
Procedure: as §1, §2, §3, §4
(§8) Incubation was done according to specific instructions from the manufacturer for each antibody. […] After incubation and washing with PBS-T, the membranes were incubated in the dark in blocking solution with 0.2% Tween, IRDye 800CW Goat anti-Rabbit IgG, and IRDye® 680RD Donkey anti-Mouse IgG (1:10000, LI-COR Biosciences, Lincoln, NE) for 1 hour at room temperature. The proteins were detected and visualized by fluorescence using the Licor Odyssey Classic Infrared Imaging system (LI-COR Biosciences, Lincoln, NE). Densitometry analysis of specific bands was performed with the Image Studio software provided by LI-COR Biosciences. Statistical analysis, including 1-way ANOVA with Dunnett's Multiple Comparison Test, was done using GraphPad Prism (GraphPad Software, La Jolla, CA).
Human gingival fibroblasts (HGF-1) were treated with lipopolysaccharide (LPS) from P. gingivalis to reproduce the type of inflammatory response seen in chronic periodontitis. Upon treatment with […], MMP-2 was released into the pericellular space to be activated by MMP-14. Subsequently, MMP-2 and MMP-14 activate MMP-13. […] LPS activation of MMP-2, MMP-13 and MMP-14, however, was attenuated by the administration of PGG.
(§9) HGF-1 cells were induced with LPS (5 μg/mL) to mimic the inflammatory process and Curcumin was added at different concentrations (2.5, 5 and 10 μM).

[8] = system: toll-like receptors 4 (TLR4); conditions: peritoneal and colonic macrophages; cited from earlier work
[9] = system: Human MMP-13; MMP13; experiment: Real time quantitative PCR of MMP-13 gene expression in HGF-1 cells; assay type: cell-based
Procedure: as §6, §7

[10] = system: TNF-α, IL-1β and IL-6; conditions: peritoneal and colonic macrophages; cited from earlier work
[11] = system: MMP-9; experiment: Western blot of MMP-9 protein expression in LPS-induced HGF-1 cells; assay type: cell-based, human; conditions: FIG. 5
Procedure: as §1, §2, §3, §4, §5

[12] = system: Human MMP-14; MMP14; experiment: Real time quantitative PCR of MMP-14 gene expression in HGF-1 cells; assay type: cell-based
Procedure: as §6, §7

[13] = system: MMP-3; experiment: Western blot of MMP-3 protein expression in LPS-induced HGF-1 cells; assay type: cell-based, human
Procedure: as §1, §2, §3, §4, §8
HGF-1 cells were treated with lipopolysaccharide (LPS, 5 μg/mL) from P. gingivalis in order to reproduce the type of inflammatory response seen in chronic periodontitis.
as §9

[14] = system: TNF-α and IL-1β; conditions: peripheral blood mononuclear cells, PGG alone; cited from earlier work
[15] = system: TNF-α; conditions: PBMCs, doses as low as 5 μM; cited from earlier work
[16] = HGF-1, LPS + PGG 25 μM (lowest dose tested), 48 hours
[17] = HGF-1, LPS 5 μg/mL + PGG 100 μM, p<0.05, n=3
[18] = HGF-1, LPS + PGG 50-100 μM, FIG. 6

Compound: O=C(OC[C@H]1O[C@@H](OC(=O)c2cc(O)c(O)c(O)c2)[C@H](OC(=O)c2cc(O)c(O)c(O)c2)[C@@H](OC(=O)c2cc(O)c(O)c(O)c2)[C@@H]1OC(=O)c1cc(O)c(O)c(O)c1)c1cc(O)c(O)c(O)c1 [PGG, 1,2,3,4,6-penta-O-galloyl-β-D-glucose]
- MMP-13 protein level after LPS treatment [1, 16]: reduction of these three MMPs to basal levels of production
- MMP-13 expression in the PGG treated groups ([1]; HGF-1, LPS + PGG, FIG. 2): not significantly different than the healthy controls; also recorded: prevented upregulation of MMP-13 in a dose-dependent manner
- interaction with MyD88 adaptor protein [2]: interacted directly
- MMP-14 expression in the PGG treated groups ([3]; HGF-1, LPS 5 μg/mL + PGG, 48 hour, FIG. 3): not significantly different than the healthy controls; also recorded: not significantly different from healthy controls
- MMP-14 protein level after LPS treatment [3, 16]: reduction of these three MMPs to basal levels of production
- MMP gene expression ([4]; HGF-1, LPS 5 μg/mL + PGG 25 μM, FIG. 6): did not vary gene expression in a significant manner
- MPP gene expression ([4]; healthy HGF-1 (no LPS), PGG 100 μM): did not significantly change
- MMP-9 gene expression compared with induction with LPS alone [5, 17]: significantly reduced the expression of MMP-9, MMP-13 and MMP-14
- MMP-9 gene expression compared with LPS induction with or without PGG 25 μM [5, 18]: reduced MMP-2, MMP-9, MMP-13, and MMP-14 expression
- MMP-2 gene expression ([6]; HGF-1, LPS 5 μg/mL + PGG 100 μM, p<0.01, n=3, FIG. 6): decreased the expression of MMP-2 compared to treatment with PGG 25-50 μM, yet expression was still higher compared with healthy HGF-1
- MMP-2 gene expression compared with LPS induction with or without PGG 25 μM [6, 18]: reduced MMP-2, MMP-9, MMP-13, and MMP-14 expression
- MMP-2 protein level after LPS treatment [7, 16]: reduction of these three MMPs to basal levels of production
- MMP-2 levels compared to healthy control ([7]; HGF-1, PGG 100 μM, FIG. 1): reduced significantly; also recorded: lower than in healthy controls
- MMP-2 expression compared to healthy controls ([7]; HGF-1, simultaneously treated with LPS and increasing PGG concentrations, FIG. 1): not significantly different than in healthy controls
- interference with the binding of LPS to TLR4 [8]: did not interfere
- MMP-13 gene expression compared with induction with LPS alone [9, 17]: significantly reduced the expression of MMP-9, MMP-13 and MMP-14
- MMP-13 gene expression compared with LPS induction with or without PGG 25 μM [9, 18]: reduced MMP-2, MMP-9, MMP-13, and MMP-14 expression
- production of TNF-α, IL-1β and IL-6 [10]: decreasing the production
- MMP-9 protein level compared to LPS inflammatory control ([11]; HGF-1, LPS 5 μg/mL + PGG at a dose lower than 50 μM): decreased the MMP-9 level
- MMP-9 protein level, return to normal levels ([11]; HGF-1, LPS 5 μg/mL + PGG): did not return to normal levels until it was treated with at least 50 μM PGG
- MMP-14 gene expression compared with induction with LPS alone [12, 17]: significantly reduced the expression of MMP-9, MMP-13 and MMP-14
- MMP-14 gene expression compared with LPS induction with or without PGG 25 μM [12, 18]: reduced MMP-2, MMP-9, MMP-13, and MMP-14 expression
- MMP-3 protein level ([13]; HGF-1, LPS 5 μg/mL + PGG 25 μM, FIG. 4): comparable to healthy control values
- MMP-3 protein level ([13]; HGF-1, LPS 5 μg/mL + PGG 50 and 100 μM, p<0.001, FIG. 4): further reduced MMP-3 to levels below basal production
- cytokine production of PBMCs on treatment with PGG [14]: resulted in the production of TNF-α and IL-1β
- suppression of LPS-induced TNF-α production [15]: ≤ 90%

Compound: COc1cc(/C=C/C(=O)CC(=O)/C=C/c2ccc(O)c(OC)c2)ccc1O [curcumin, reference compound]
- MMP-2 production [7]: not significantly different that the untreated HGF-1
- MMP-2 production ([7]; listed as Curcumin): decreased MMP-2 production
- MMP-2 expression ([7]; HGF-1 treated with Curcumin 10 μM alone (no LPS), p>0.05, n=3): not significantly different from untreated HGF-1
- MMP-3 production ([13]; HGF-1, LPS 5 μg/mL + curcumin 2.5, 5 and 10 μM, FIG. 16): decreased MMP-3 production
